“And” between values parts separate entries of the source, which are not always exact repeats. Equal values may be shown once. Read-outs that look alike come from different tables or passages of the source.

The source of these data is patent US8791132B2, “Compounds and methods for treatment of hypertension” (Medivation Technologies, Inc., priority 2011, dated 2014).

Test [1] has as its target T1, rat adrenergic α1B receptor (Rattus norvegicus, UniProt P15823).
T1 construct: rat adrenergic α1B receptor obtained from Wistar Rat liver; from tissue; host or cells: Wistar rat liver
T1 sequence (P15823 1-515): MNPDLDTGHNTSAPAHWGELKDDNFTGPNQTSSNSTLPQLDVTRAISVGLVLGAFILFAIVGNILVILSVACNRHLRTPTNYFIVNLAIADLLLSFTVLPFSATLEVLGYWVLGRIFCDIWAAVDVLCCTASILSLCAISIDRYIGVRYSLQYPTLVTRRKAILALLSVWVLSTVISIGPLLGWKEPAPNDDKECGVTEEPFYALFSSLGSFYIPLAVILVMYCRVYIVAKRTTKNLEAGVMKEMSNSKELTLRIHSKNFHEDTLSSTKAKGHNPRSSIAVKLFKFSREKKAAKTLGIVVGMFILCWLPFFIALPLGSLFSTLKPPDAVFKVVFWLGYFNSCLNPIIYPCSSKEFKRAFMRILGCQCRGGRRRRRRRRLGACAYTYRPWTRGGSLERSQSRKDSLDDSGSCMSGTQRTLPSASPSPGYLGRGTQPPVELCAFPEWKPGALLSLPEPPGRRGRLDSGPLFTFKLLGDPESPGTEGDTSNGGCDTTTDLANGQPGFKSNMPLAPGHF
In words: Radioligand binding, adrenergic α1B ([3H]Prazosin). In outline:
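Specific binding, taken as total minus that remaining with 10 μM phentolamine, is measured after filtration and counting. Rat liver receptor preparation and 0.25 nM [3H]prazosin are incubated with compound in 50 mM Tris-HCl (pH 7.4, 0.5 mM EDTA) at 25° C for 60 min. Activity is reported as percent inhibition.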

The target in test [2] is T2, human recombinant adrenergic α2B receptor (Homo sapiens, UniProt P18089).
T2 construct: expressed in transfected cells; host or cells: CHO-K1
T2 sequence (P18089 1-450): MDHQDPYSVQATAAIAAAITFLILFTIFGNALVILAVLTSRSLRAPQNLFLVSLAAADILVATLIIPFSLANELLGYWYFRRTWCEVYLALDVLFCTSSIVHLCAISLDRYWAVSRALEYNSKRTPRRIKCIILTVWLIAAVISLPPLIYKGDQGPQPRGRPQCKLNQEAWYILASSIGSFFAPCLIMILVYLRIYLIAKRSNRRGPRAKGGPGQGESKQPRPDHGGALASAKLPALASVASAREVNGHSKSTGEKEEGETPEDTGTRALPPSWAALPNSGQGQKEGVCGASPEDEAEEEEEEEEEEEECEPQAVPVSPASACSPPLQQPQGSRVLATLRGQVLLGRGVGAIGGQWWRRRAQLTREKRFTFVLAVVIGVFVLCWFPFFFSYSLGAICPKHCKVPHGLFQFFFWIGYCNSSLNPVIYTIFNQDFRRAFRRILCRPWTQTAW
The test is described as follows: Radioligand binding, adrenergic α2B ([3H]Rauwolscine). In outline: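 Assay used CHO-K1-expressed human α2B receptor in Tris-HCl pH 7.4 buffer with MgCl2, EDTA and BSA; 60 min incubation at 25 °C.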

Test [3] addresses T3, human recombinant adrenergic α1D receptor (Homo sapiens, UniProt P25100).
T3 construct: expressed in transfected cells; host or cells: HEK-293
T3 sequence (P25100 1-572): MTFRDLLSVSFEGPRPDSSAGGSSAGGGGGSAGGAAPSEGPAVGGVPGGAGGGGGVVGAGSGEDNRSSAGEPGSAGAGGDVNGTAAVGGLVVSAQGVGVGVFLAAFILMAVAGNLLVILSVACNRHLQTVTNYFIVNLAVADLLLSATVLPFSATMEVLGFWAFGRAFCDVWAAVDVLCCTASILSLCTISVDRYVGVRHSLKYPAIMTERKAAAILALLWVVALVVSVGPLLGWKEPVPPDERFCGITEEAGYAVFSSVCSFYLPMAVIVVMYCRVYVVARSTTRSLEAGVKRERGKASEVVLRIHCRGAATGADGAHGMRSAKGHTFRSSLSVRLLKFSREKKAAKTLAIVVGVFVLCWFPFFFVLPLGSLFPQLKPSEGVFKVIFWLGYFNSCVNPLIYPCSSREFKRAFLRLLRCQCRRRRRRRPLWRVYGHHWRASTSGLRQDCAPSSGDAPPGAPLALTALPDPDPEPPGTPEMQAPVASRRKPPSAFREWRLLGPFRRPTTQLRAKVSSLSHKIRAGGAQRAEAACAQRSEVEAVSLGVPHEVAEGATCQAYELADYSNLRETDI
In words: Radioligand binding, adrenergic α1D ([3H]Prazosin). Here is the method: Compounds were incubated with 0.6 nM [3H]Prazosin for 60 min at 25° C. Non-specific binding was estimated in the presence of 10 μM phentolamine. Receptor proteins were filtered and washed, the filters were then counted to determine [3H]Prazosin specifically bound. […] Biochemical assay results are presented as the percent inhibition of specific binding in Table B1.

The target in test [4] is T4, human recombinant adrenergic α2A receptor (Homo sapiens, UniProt P08913).
T4 construct: expressed in transfected cells; host or cells: insect Sf9 cells
T4 sequence (P08913 1-465): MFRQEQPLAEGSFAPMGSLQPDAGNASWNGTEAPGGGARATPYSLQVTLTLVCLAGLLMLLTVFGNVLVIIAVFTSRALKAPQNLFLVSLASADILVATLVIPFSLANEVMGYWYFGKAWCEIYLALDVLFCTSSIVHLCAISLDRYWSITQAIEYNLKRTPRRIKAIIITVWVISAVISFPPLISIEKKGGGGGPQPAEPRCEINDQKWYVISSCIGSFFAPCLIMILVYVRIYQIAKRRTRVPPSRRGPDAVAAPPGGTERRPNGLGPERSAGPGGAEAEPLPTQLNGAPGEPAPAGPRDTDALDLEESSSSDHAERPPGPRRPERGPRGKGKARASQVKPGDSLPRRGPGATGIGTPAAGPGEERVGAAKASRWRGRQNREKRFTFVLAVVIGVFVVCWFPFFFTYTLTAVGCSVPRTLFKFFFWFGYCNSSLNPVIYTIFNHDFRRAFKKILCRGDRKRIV
The test is described as follows: Radioligand binding, adrenergic α2A ([3H]MK-912). In outline: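 Displacement of 1 nM [3H]MK-912 from receptor produced in insect Sf9 cells was measured after 60 min at 25 °C. Readout: percent inhibition of specific binding.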

The mark [5] stands for this setting: 0.1 μM compound, read-out: Percentage inhibition of ligand binding, Adrenergic α1B.
Where [6] appears, read: 0.1 μM compound, read-out: Percentage inhibition of ligand binding, Adrenergic α2B.
[7] abbreviates: 0.1 μM compound, read-out: Percentage inhibition of ligand binding, Adrenergic α1D.
Setting [8] is: 0.1 μM compound, read-out: Percentage inhibition of ligand binding, Adrenergic α2A.
Where [9] appears, read: read-out: Percentage inhibition of ligand binding, Adrenergic α1B (0.1 μM), compound at 0.1 μM, [3H]Prazosin, repeat datapoints each shown.
Where [10] appears, read: read-out: Percentage inhibition of ligand binding, Adrenergic α2B (0.1 μM), compound at 0.1 μM, [3H]Rauwolscine, repeat datapoints each shown.
[11] abbreviates: read-out: Percentage inhibition of ligand binding, Adrenergic α1D (0.1 μM), compound at 0.1 μM, [3H]Prazosin, repeat datapoints each shown.
Where [12] appears, read: read-out: Percentage inhibition of ligand binding, Adrenergic α2A (0.1 μM), compound at 0.1 μM, [3H]MK-912, repeat datapoints each shown.

With `COc1ccc(C(C)(O)Cn2c3c(c4cc(C)ccc42)CN(C)CC3)cc1` (stereo not shown) [254a], the inhibition at 0.1 µM was found to be 75% in test [1] (setting [5]), 85% in test [2] (setting [6]), 36% in test [3] (setting [7]) and 58% in test [4] (setting [8]).
`C/C(=C\n1c2c(c3cc(C)cc(C)c31)CN(C)CC2)c1ccc(C)nc1` [compound 188]: the inhibition at 0.1 µM in test [1] (setting [9]) was 60%; in test [2] (setting [10]), 105%; in test [3] (setting [11]), 48%. The “Percentage inhibition of ligand binding, Adrenergic α2A (0.1 μM)” value in test [4] (compound at 0.1 μM, [3H]MK-912, repeat datapoints each shown, 0.1 µM) was 66% and 90%. The inhibition at 0.03 µM in test [4] (read-out: Percentage inhibition of ligand binding, Adrenergic α2A (0.03 μM), compound at 0.03 μM, [3H]MK-912, repeat datapoints each shown) is 35%.
On to `Cc1ccc2c(c1)c1c(n2CCc2cnc3ccccc3c2)CCN(C)C1` [compound 320], for which the inhibition at 0.1 µM in test [1] (setting [5]) was 61%; in test [2] (setting [6]), 18%; in test [3] (setting [7]) it was 56%; in test [4] (setting [8]) it was 66%.
With `Cc1ccc2c(c1)c1c(n2C#Cc2ccncc2)CCN(C)C1` [compound 264], the inhibition at 0.1 µM in test [1] (setting [5]) amounted to 79%; in test [2] (setting [6]) it was 82%; in test [3] (setting [7]), 46%; in test [4] (setting [8]), 81%.
In the same order, the values of `C=CCC1(C)CN(C)Cc2c1n(/C=C(\C)c1ccc(F)cc1)c1ccc(C)cc21` (stereo not shown) [compound 274, 4-allyl-5-[2-(4-fluoro-phenyl)-propenyl]-2,4,8-trimethyl-2,3,4,5-tetrahydro-1H-pyrido[4,3-b]indole] are 28%, 27%, 25% and 68%.
On to `C/C(=C\n1c2c(c3cc(Cl)ccc31)CCN(C)CC2)c1cccnc1` [compound 244], for which the inhibition at 0.1 µM in test [1] (setting [5]) was 78%; in test [2] (setting [6]), 99%; in test [3] (setting [7]), 42%; in test [4] (setting [8]), 76%.
As to `CN1CCc2c(c3cccnc3n2CCc2ccc(C(F)(F)F)nc2)C1` [II-103, 6-methyl-9-(2-(6-(trifluoromethyl)pyridin-3-yl)ethyl)-6,7,8,9-tetrahydro-5H-pyrrolo[2,3-b:4,5-c′]dipyridine], the inhibition at 0.1 µM in test [1] (setting [5]) is 1%; in test [2] (setting [6]), 35%; in test [3] (setting [7]) it was 8%; in test [4] (setting [8]), -5%.
With `C/C(=C\n1c2c(c3cc(C)ccc31)CN(C)CC2)c1ccc2cnccc2c1` [compound 311], the inhibition at 0.1 µM in test [1] (setting [5]) is 87%; in test [2] (setting [6]), 97%; in test [3] (setting [7]), 79%; in test [4] (setting [8]), 91%.
With `C/C(=C\n1c2c(c3cc(C)ccc31)CCN(C)CC2)c1ccncc1` [compound 99], the inhibition at 0.1 µM amounted to 69% in test [1] (setting [9]), 85% in test [2] (setting [10]), 34% in test [3] (setting [11]) and 29% in test [4] (setting [12]).
Turning to `Cc1ccc2c(c1)c1c(n2CCc2csc3ccccc23)CCN(C)C1` [compound 294, 5-(2-benzo[b]thiophen-3-yl-ethyl)-2,8-dimethyl-2,3,4,5-tetrahydro-1H-pyrido[4,3-b]indole], the inhibition at 0.1 µM in test [1] (setting [5]) worked out at 76%; in test [2] (setting [6]), 41%; in test [3] (setting [7]), 39%; in test [4] (setting [8]), 94%.
Turning to `Cc1cnc2c(c1)c1c(n2CCc2ccc(C)nc2)CC2CCCN2C1` (stereo not shown) [II-235], the inhibition at 0.1 µM worked out at 58% in test [1] (setting [9]), 45% in test [2] (setting [10]), 28% in test [3] (setting [11]) and 3% in test [4] (setting [12]).
In the same order, the values of `C/C(=C\n1c2c(c3cc(C)ccc31)C1CCCN1CC2)c1ccc(C)nc1` (stereo not shown) [compound 193, 10-methyl-7-(2-(6-methylpyridin-3-yl)prop-1-enyl)-2,3,5,6,7,11c-hexahydro-1H-indolizino[7,8-b]indole] are 93%, 103%, 88% and 77%.
For the molecule `C/C(=C\n1c2c(c3cc(C)ccc31)CN(C)CC2)c1cncc2ccccc12` [compound 292], the inhibition at 0.1 µM was 13% in test [1] (setting [5]), 104% in test [2] (setting [6]), 23% in test [3] (setting [7]) and 58% in test [4] (setting [8]).
Regarding `CNC(=O)c1cccc(/C(C)=C/n2c3c(c4cc(C)ccc42)CN(C)CC3)c1` [compound 107], the inhibition at 0.1 µM in test [1] (setting [9]) came out at 56%; in test [2] (setting [10]), 85%; in test [3] (setting [11]) it was 63%; in test [4] (setting [12]), 10%.
Regarding `CN1CCc2c(c3cc(Cl)ccc3n2CCC(=O)OCC2CCCCC2)C1` [compound 87], the inhibition at 0.1 µM in test [1] (compound at 0.1 μM, [3H]Prazosin, repeat assays, each datapoint shown, read-out: Percentage inhibition of ligand binding, Adrenergic α1B) was determined as 5%; in test [2] (compound at 0.1 μM, [3H]Rauwolscine, repeat assays, each datapoint shown, read-out: Percentage inhibition of ligand binding, Adrenergic α2B), 66%; in test [3] (compound at 0.1 μM, [3H]Prazosin, repeat assays, each datapoint shown, read-out: Percentage inhibition of ligand binding, Adrenergic α1D) it was 24%; in test [4] (compound at 0.1 μM, [3H]MK-912, repeat assays, each datapoint shown, read-out: Percentage inhibition of ligand binding, Adrenergic α2A) it was 14%.

The term inhibition denotes the relative decrease from the control value, in per cent.
